PMC4077696 (PLoS Biology, 2014)
Entries after “also recorded” stand apart in the source; their conditions may differ. Structures can show the parent of a compound that is named as a salt.

Tests used:
PfPMV = PfPMV (Plasmodium falciparum, UniProt Q8I6Z5); test: PEXEL cleavage assay with immunopurified PfPMVHA and fluorogenic KAHRP PEXEL peptide; type: biochemical
Procedure: To investigate PvPMVHA activity, we affinity purified it, as well as the PfPMVHA control, using anti-HA agarose, as previously described,[18]. […] The proteins were incubated with a fluorogenic peptide of nine amino acids that contained the PEXEL sequence from knob-associated histidine-rich protein (KAHRP), and efficient processing was observed by both enzymes (Figure 1E). Cleavage of KAHRP by PfPMVHA was previously shown to occur after Leu (RTL↓) by mass spectrometry, and this position was also confirmed for PvPMVHA (Figure S2B–E). […] In contrast, no processing was observed when the PEXEL Arg and Leu residues were mutated to Ala (ATAAQ), consistent with the substrate specificity of PfPMV (Figure 1E). To verify that processing was due to HA-tagged PMV rather than other co-precipitated proteases, we expressed in P. falciparum a mutant of PvPMVHA or PfPMVHA [13], where one or both catalytic Asp residues were mutated to Ala (see Figure 1A,B). Following affinity purification, the mutant enzymes were incubated with KAHRP PEXEL peptides, but no processing was observed (Figure 1E; blue, white), confirming that the PEXEL-dependent cleavage activity observed for each protease was attributable only to HA-tagged PMV.
Each compound was incubated with PfPMVHA in the presence of KAHRP PEXEL peptides.
PMV-agarose was prepared by adding α-HA-agarose (Sapphire Bioscience) to parasite lysates, prepared by sonication in 1% Triton X-100/PBS, for 1 h before extensive washing in same,[13]. PEXEL cleavage assays (20 µl total volume) consisted of 0.2 µl PMV-agarose in digest buffer (25 mM Tris, 25 mM MES, pH 6.4) with 1.5 µM FRET peptide substrate (DABCYL-[…]-E-EDANS, DABCYL-[…]-E-EDANS, LifeTein; DABCYL-[…]-E-EDANS, DABCYL-[…]-E-EDANS; Mimotopes) ± inhibitor. Samples were excited at 340 nm and fluorescence emission measured at 492 nm using an Envision fluorescence plate reader (Perkin-Elmer) heated to 37°C for 150 min. Samples were shaken between measurements. For determination of the peptide cleavage position by PvPMVHA, the fluorogenic peptide (DABCYL-[…]-E-EDANS), representing the wild-type KAHRP PEXEL sequence, was incubated with and without PvPMVHA at 37°C for 48 h. Products of the incubation were detected by a molecular formula algorithm using an Agilent 6200 TOF/6500 series mass spectrometer.

HEpG2 cells = test: Toxicity against human HEpG2 cells; type: cell-based; settings: toxicity against human cell line
[1] = system: Human Foreskin Fibroblasts (HFF); test: Toxicity against Human Foreskin Fibroblasts; type: cell-based; settings: Fibroblast
signal peptidase = test: Signal peptide cleavage of SERA5s-GFP in parasites by immunoblot; type: cell-based, Plasmodium falciparum; settings: for Signal peptide cleavage of SERA5s-GFP, in words: 20 µM for 5 h
Procedure: This protein contains a signal peptide but lacks a PEXEL and is efficiently secreted to the parasitophorous vacuole (Figure S3B).
Trophozoites (30–34 h) expressing PfEMP3-GFP, KAHRP-GFP, or SERA5s-GFP were magnet-purified (Miltenyi Biotech), incubated with inhibitors in 400 µl total volume at 37°C for 1–5 h, treated with 0.09% saponin containing inhibitor, and washed pellets were solubilized in Laemmli's buffer, boiled for 3 min, and frozen at −20°C. Proteins were separated by SDS-PAGE, transferred to nitrocellulose and blocked in 10% skim milk/PBS-T, and probed with rat α-HA (Roche 3F10; 1∶1,000), mouse α-GFP (Roche; 1∶1,000), rabbit α-Aldolase (1∶1,000), rabbit α-HSP70 (1∶4,000), rabbit α-PfPMV (1∶1,000), or rabbit α-Hyp8 (1∶500) primary antibodies followed by horseradish peroxidase-conjugated secondary antibodies (Silenius) and detected by enhanced chemiluminescence (Amersham).

[2] = system: PfEMP1 surface expression, CS2-GFP parasites; test: PfEMP1 (VAR2CSA) surface display on infected erythrocytes by flow cytometry with PAM1.4; type: cell-based, Plasmodium falciparum; settings: 15 µM 23 h or 50>15 µM
Procedure: As 916 treatment has adverse affects on parasites after 24 h, a sublethal dosing regime was developed (see Figure S7) to maximize the inhibitor effect while ensuring parasites remained viable 24 h postinvasion when surface-exposed PfEMP1 was measured. Treatment with >15 µM for 23 h or with 50 µM for >12 h postinvasion prior to decreasing to 15 µM adversely affected parasite growth and was avoided.
To measure PfEMP1 display, highly synchronous ring-stage CS2-GFP parasites preferentially expressing VAR2CSA (see Plasmids, Parasites, and Antibody Production) were obtained by incubation of erythrocytes with viable merozoites for 15 min [47], and parasites were treated with 916, 025, or DMSO using the dosage regime above. […] Labeled cells were washed with 0.1% casein/PBS and analyzed on a FACSCalibur cytometer (Becton-Dickinson, USA). Fluorescence in channel FL1 was used to measure parasite-infected erythrocytes (GFP), and fluorescence in channel FL4 was used to measure bound PAM1.4 IgG antibodies (Alexa 633) for each sample. The geometric mean fluorescence of uninfected erythrocytes (treated with secondary and tertiary but not primary antibodies) was deducted from the geometric mean fluorescence of infected erythrocytes using >100,000 cells per condition. […]

[3] = system: cytoadherence of infected erythrocytes to CSA; test: Static adhesion of infected erythrocytes to chondroitin sulfate A (CSA); type: cell-based, Plasmodium falciparum; settings: static conditions
Procedure: Adhesion assays were performed as described previously,[33]. Briefly, CSA (Sigma) was spotted at 50 µg/ml in triplicate into petri dishes, incubated overnight at 4°C, and blocked in 1% casein/PBS for 2 h. Inhibitor-treated erythrocytes were added to CSA-coated dishes and incubated for 45 min at 37°C. Dishes were washed four times with 5 ml warm RPMI-HEPES, fixed in 2% paraformaldehyde for 2 h, stained with 10% Giemsa for 15 min, and the number of adherent erythrocytes per mm^2 quantified by light microscopy counts. Assays were performed in triplicate.

PfPMV, sequence (Q8I6Z5 34-590): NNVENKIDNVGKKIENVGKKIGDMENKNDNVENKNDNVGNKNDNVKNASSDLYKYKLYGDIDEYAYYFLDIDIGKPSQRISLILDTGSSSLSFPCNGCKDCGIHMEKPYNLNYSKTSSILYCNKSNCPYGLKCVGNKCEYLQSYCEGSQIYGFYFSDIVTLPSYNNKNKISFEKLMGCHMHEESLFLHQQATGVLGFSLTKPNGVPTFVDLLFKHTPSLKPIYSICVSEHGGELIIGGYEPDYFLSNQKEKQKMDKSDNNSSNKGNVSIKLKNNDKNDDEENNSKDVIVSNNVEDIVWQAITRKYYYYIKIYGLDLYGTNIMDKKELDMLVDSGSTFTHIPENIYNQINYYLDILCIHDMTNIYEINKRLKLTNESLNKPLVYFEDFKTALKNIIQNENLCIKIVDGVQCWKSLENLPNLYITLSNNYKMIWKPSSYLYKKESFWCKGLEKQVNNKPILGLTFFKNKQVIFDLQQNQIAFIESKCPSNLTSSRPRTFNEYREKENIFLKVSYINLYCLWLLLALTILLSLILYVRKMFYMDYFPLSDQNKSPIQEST

Row | Compound | IC50 (PfPMV; IC50 PfPMV, PfPMVHA) [nM] | IC50 (HEpG2 cells) [nM] | IC50 [1] [nM] | Signal peptide cleavage of SERA5s-GFP, in words (signal peptidase) | Effect on PMV or signal peptidase activity in parasites, in words (signal peptidase; concentrations up to 50 µM) | Effect on PfEMP1 surface expression, in words [2] | Effect on adhesion to CSA, in words [3] | IC50 (PfPMV; IC50 PfPMVHA, PEXEL cleavage) [nM] | Decrease of PfEMP1 surface expression ([2]; 24 h postinvasion) | Reduction of adhesion to CSA ([3]; compared to DMSO) [%]
1 | CC[C@H](C)[C@H](NC(=O)[C@@H](NC(=O)[C@H](CCCNC(=N)N)NS(=O)(=O)Cc1ccccc1)C(C)C)[C@@H](O)CC(=O)NCCc1ccccc1 [compound 025, PhCH2SO2Arg-Val-AHMHpA-NH(CH2)2Ph . TFA] | 1110 | > 100000 | > 100000 | no defect | no affect | no effect | no effect | – | – | –
2 | CC(C)C[C@H](NC(=O)[C@@H](NC(=O)[C@H](CCCNC(=N)N)NS(=O)(=O)Cc1ccccc1)C(C)C)[C@@H](O)CC(=O)NCCc1ccccc1 [compound 916, PhCH2SO2-Arg(NH2)-Val-Sta-NH(CH2)2Ph .TFA] | – | > 100000 | > 100000 | no defect; also recorded: did not impair processing of the signal peptide | – | – | – | 20 | up to 55% | ~50
